Ends that are not written are not given here.
T1: human fibrinogen (Homo sapiens, UniProt P02671+P02675+P02679)
T1 sequence (P02671 20-629 limits assumed): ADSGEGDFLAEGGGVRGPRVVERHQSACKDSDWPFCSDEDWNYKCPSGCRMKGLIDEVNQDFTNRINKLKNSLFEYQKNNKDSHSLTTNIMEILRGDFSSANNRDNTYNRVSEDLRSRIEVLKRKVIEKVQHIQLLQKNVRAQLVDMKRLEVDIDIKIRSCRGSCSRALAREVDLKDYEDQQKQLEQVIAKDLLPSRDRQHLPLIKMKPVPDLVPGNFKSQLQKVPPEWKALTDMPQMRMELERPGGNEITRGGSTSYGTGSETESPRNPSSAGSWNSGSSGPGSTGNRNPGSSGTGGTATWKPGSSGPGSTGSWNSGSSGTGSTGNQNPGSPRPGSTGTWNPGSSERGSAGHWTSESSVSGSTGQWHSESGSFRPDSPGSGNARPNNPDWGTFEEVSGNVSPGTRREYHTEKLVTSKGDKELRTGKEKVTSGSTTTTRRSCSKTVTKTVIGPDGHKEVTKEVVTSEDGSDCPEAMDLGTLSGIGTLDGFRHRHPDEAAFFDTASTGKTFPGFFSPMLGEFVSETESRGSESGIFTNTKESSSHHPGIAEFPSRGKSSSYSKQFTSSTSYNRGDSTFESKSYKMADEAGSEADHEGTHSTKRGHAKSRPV
T1 sequence (P02675 31-491): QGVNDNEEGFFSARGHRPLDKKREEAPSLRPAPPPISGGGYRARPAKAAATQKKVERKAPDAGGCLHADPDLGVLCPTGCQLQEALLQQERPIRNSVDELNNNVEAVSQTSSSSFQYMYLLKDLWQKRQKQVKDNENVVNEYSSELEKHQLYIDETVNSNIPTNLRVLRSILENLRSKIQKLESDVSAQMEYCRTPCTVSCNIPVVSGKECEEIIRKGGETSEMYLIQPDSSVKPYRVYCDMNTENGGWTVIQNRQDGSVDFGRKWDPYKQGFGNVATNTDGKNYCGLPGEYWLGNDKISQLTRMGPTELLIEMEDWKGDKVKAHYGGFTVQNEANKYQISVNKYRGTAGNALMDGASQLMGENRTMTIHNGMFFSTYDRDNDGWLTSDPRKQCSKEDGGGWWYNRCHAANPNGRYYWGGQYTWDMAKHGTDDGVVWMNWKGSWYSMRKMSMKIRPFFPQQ
T1 sequence (P02679 27-433 limits assumed): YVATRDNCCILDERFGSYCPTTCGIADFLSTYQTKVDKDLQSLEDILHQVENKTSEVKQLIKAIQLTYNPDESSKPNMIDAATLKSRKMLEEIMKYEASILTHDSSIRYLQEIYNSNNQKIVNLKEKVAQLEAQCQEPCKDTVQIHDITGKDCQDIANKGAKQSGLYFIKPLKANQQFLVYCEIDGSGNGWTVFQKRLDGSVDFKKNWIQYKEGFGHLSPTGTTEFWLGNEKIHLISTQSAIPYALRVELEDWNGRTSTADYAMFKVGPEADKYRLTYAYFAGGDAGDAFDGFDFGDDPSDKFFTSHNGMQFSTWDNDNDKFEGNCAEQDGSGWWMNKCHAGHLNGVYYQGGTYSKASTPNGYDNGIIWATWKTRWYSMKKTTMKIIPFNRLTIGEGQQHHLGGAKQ

B1: recombinant polypeptide: SEQ ID NO: 2 plus six histidine residues, T7 phage protein 10 portion and enterokinase site; approximately 30 kDa, expressed in E. coli (protein)
chain: MRGSHHHHHHGMASMTGGQQMGRDLYDDDDKDRWGSELFSQKYIELVVVADHGMFTKYNGNLNTIRTRVHEIVNTLNGFYRSLNIHISLTDLEIWSNQDLINVQSAAADTLKTFGEWRERVLLNRISHDNAQLLTAIDLADNTIGIAYTGGMCYPKNSVGIVQDHSPKTLLIAVTMAHELGHNLGMKHDENHCHCSASFCIMPPSLSEGPSYEFSDCSKDYYEMFLTKRKPQCILNKPWYHGIRSLIRLLTKPERKLSWLLPPLSNN

How the values were obtained:
HIII mice = assay: Immunosuppressive activity against soluble antigen (human gamma globulin, HGG), anti-HGG antibodies by ELISA; format: in vivo; conditions: for suppression of anti-HGG antibody production: single 3 μg dose intraperitoneally, HGG on Al(OH)3 after 24 hours
Experimental: The immunosuppressive activity can also be evaluated against a soluble antigen, such as human gamma globulin (HGG), adsorbed in aluminum hydroxide, and the antibodies titer determined by ELISA.
Titers were determined by ELISA and calculated considering the highest dilution of experimental sera whose O.D. (optical density) was five times higher than those obtained for normal serum at the same dilution.
The immunosuppressive activity of the synthetic polypeptide P2 (SEQ ID NO: 5) and P6 (SEQ ID NO: 9) was evaluated against HGG, taking into account immunosuppression time after preventive treatment and antigen inoculation. In all protocols, animals received a single dose of the tested polypeptides. In this experiment, the HIII mice (5 animals/group) were treated intraperitoneally with 3 μg of P6 or 3 μg of P2, and after 24 hours, were immunized intraperitoneally with HGG adsorbed on Al(OH)3 (10 μg/animal); The untreated group was used as a positive control receiving only HGG. […] The negative control was represented by a group called normal serum, i.e., serum from untreated and non-immunized animals. O.D. values obtained from the 1:500 dilution were presented herein as average+standard deviation and were statistically analyzed by Student t test. Values were considered significant when p<0.0001 (***); p<0.005 (**); p<0.05 (*) compared to the positive control, i.e., animals immunized only with HGG. Thus, the HIII mice groups received polypeptides SEQ ID NO: 22, P2 and P6.

Lineage HIII mice [1] = assay: Immunogenicity analysis: anti-polypeptide antibodies by ELISA after immunization; format: in vivo; conditions: intraperitoneal, bleeding seven days after immunization
Experimental: The immunogenicity is the capacity of a substance to induce an immune response. To evaluate the immunogenic potential of this invention's polypeptides, the antibody production is determined by the dosage of antibodies titer by ELISA after administration of the present invention polypeptides in potent adjuvants.
Anti-recombinant polypeptide antibodies were measured by ELISA. […] The reactions were developed by the addition of anti-mice-IgG conjugated to peroxidase (1: 7,500), followed by addition of OPD (o-Phenylenediamine dihydrochloride) and H2O2. The reading of the reactions was performed at λ492 nm on a plate spectrophotometer. The titer was established as the highest dilution of experimental sera which optical densities were three times higher than those obtained for normal serum at the same dilution. The data correspond to values obtained from two independent experiments. The significance between different groups (6 animals/group) was p<0.01.
One group was used as a positive control, receiving human gamma globulin (HGG). Bleeding was performed seven days after immunization and antibody production was assessed by ELISA.

human fibrinogen = biological target: T1, human fibrinogen; assay: Fibrinogenolytic assay (SDS-PAGE); format: biochemical; conditions: 30 μg human fibrinogen, 5 μg polypeptide, 37° C. for 5 hours; whole L. muta venom as positive control
Experimental: (§1) Another possibility would be the verification of hydrolysis capacity in known substrates. The proteolytic enzymes of viperidae venoms have, for example, the capacity to hydrolyze the fibrinogen and the C3 component of the human complement system, and verifying this effect is a way of inquiring about the proteolytic activity.
To confirm the absence of enzymatic activity, one experiment was carried out a fibrinogenolytic assay. […] The samples were subjected to SDS-PAGE (10%) analysis under reducing conditions and the gel was stained with Coomassie blue.

BALB/c mice = assay: Hemorrhagic activity, method of Kondo et al., intradermal injection; format: in vivo; conditions: 4 mg L. muta venom or 50 mg recombinant polypeptide, skin assessed after 2 hours
Experimental: (1960, Jpn. J. Med. Sci. Biol. 13: 43-52).
After 2 hours, the animals were euthanized and the skin removed to assess the presence of hemorrhage.

Lineage HIII mice [2] = assay: Immunosuppressive activity against particulate antigen (sheep erythrocytes), hemagglutination; format: in vivo; conditions: 50 μg intraperitoneally 72 hours before immunization with sheep erythrocytes, […] cells/animal
Experimental: For the invention's polypeptide immunosuppressive activity analysis, Lineage HIII mice constitutively known as good responder to of antibody production are inoculated, intraperitoneally, and immunized with structurally complex and highly immunogenic antigens, such as sheep erythrocytes, a particulate antigen. The animals' serum is then analyzed regarding its hemagglutination activity: the lower is the hemagglutinating effect; the higher is the immunosuppressive capacity of the evaluated compound. The immunosuppressive activity can also be evaluated against a soluble antigen, such as human gamma globulin (HGG), adsorbed in aluminum hydroxide, and the antibodies titer determined by ELISA.
An untreated group was used as positive control and received only E^S. Samples of 50 μL E^S (2% v/v) were incubated with 50 μL of the sera from immunized animals (serially diluted) in 96 U-bottom well plates for 8 hours at room temperature. As negative control, E^S were incubated with PBS only. Antibody titers were that ones whose higher serum dilutions promoted agglutination of erythrocytes. The data are representative of three independent experiments. The significance between different groups was p<0.01 (FIG. 16).

[3] = system: FRET substrate Abz-FRSSRQ EDDnp; assay: Proteolytic activity on extinguished fluorescence (FRET) substrate, spectrofluorometer; format: biochemical; conditions: 10 μg of polypeptide, fluorescence monitored for 1 hour
[4] = biological target: C3 component of human complement system (Homo sapiens, UniProt P01024); assay: Cleavage of C3 component (SDS-PAGE); format: biochemical; conditions: 9 μg human C3, 5 μg polypeptide, 37° C. for 5 hours
Chain of C3 component of human complement system (P01024 23-1663): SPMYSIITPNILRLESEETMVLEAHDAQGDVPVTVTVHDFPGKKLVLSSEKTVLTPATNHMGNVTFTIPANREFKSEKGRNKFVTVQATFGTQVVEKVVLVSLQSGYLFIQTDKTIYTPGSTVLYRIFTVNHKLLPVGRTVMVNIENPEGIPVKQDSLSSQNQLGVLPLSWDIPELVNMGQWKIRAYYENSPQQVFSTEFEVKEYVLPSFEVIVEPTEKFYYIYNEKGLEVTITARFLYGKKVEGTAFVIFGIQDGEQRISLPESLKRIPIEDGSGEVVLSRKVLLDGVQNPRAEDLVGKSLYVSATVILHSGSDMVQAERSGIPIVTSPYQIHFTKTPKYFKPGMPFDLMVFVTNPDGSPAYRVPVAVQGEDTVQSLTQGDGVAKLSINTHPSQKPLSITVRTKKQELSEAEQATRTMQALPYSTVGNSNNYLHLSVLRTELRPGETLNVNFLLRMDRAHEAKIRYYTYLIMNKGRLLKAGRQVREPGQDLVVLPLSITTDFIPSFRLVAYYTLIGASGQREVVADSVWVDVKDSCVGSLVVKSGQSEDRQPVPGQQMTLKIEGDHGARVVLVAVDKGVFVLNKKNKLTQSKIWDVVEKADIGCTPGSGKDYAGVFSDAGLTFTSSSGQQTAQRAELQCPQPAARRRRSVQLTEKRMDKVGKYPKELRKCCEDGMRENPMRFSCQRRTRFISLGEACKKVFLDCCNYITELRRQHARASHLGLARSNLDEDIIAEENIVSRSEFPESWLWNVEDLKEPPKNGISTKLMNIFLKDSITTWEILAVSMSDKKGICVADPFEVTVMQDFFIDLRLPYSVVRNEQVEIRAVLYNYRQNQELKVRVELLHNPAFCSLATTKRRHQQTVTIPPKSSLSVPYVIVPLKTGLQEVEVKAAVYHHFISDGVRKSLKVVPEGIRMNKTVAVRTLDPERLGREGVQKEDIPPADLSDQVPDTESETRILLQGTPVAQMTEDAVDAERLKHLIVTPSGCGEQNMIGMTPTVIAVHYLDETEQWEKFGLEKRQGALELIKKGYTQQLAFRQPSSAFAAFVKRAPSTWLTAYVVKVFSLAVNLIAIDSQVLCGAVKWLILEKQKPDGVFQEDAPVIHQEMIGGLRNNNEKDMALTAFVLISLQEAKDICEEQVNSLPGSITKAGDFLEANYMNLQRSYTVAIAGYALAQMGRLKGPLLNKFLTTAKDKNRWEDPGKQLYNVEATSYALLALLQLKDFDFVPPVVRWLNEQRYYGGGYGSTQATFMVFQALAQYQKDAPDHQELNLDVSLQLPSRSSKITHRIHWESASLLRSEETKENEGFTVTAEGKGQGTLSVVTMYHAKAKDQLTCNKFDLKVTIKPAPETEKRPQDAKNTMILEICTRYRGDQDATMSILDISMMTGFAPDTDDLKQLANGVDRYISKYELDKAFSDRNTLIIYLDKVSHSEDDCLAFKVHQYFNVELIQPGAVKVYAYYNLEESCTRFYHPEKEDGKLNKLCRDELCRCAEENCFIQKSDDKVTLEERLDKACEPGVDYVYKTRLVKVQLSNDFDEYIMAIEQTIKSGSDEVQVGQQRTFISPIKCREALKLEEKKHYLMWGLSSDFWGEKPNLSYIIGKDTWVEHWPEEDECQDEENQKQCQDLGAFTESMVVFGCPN
Excerpt: as §1
According to the caption on FIG. 14: (A) Human C3; (B) Human C3+venom; (C) Human C3+polypeptide. The samples were subjected to SDS-PAGE (10%) analysis under reducing conditions and the gel was stained with Coomassie blue.

Molecule | suppression of anti-HGG antibody production (HIII mice; after 7 days) | suppression of anti-HGG antibody production (HIII mice; after 13 days) | suppression of anti-HGG antibody production (HIII mice; after 36 days) | immunogenicity (production of antibodies against P6) (Lineage HIII mice [1]; P6 (3 mg)) | inhibition of anti-HGG antibody production (HIII mice; P6 3 μg/animal or recombinant polypeptide 50 μg/animal, HGG in Al(OH)3 after 24 hours) | hydrolysis of fibrinogen (human fibrinogen) | hemorrhagic activity (BALB/c mice) | immunogenic potential (production of specific anti-recombinant polypeptide antibodies) (Lineage HIII mice [1]; 50 μg) | hemagglutination by serum of treated animals (antibody response to sheep erythrocytes) (Lineage HIII mice [2]) | proteolytic activity on the FRET substrate [3] | cleavage of C3 component [4]
AIDLADNTIGIAYTGG [P2] | suppression of anti-HGG antibody production was induced | suppression of anti-HGG antibody production was induced | suppression of anti-HGG antibody production was induced | – | – | – | – | – | – | – | –
NAQLLTAID [P6] | suppression of anti-HGG antibody production was induced | suppression of anti-HGG antibody production was induced | suppression of anti-HGG antibody production was induced | did not show immunogenicity | inhibition of anti-HGG antibody production | – | – | – | – | – | –
B1 | – | – | – | – | – | not able to hydrolyze fibrinogen | no hemorrhagic activity | very low or no immunogenic potential | unable to promote hemagglutination | absence of recombinant polypeptide proteolytic activity | unable to cleave the C3 component
